Results taken from US7282522B2, “Hydroxamic acid derivatives and the method for preparing thereof” (Amorepacific Corporation, priority 2003, dated 2007).

Tests used:
RARα = molecular target: T1, RARα (Homo sapiens, UniProt P10276); experiment: RARE-luciferase reporter assay in transfected CV-1 cells (affinity to retinoic acid receptor), RARα; assay type: cell-based; details: treated 24 hours at final concentration 10^−4M, control group 1000
T1 construct: expressed in transfected cells; host or cells: CV-1 cells (ATCC)
T1 sequence (P10276 1-462): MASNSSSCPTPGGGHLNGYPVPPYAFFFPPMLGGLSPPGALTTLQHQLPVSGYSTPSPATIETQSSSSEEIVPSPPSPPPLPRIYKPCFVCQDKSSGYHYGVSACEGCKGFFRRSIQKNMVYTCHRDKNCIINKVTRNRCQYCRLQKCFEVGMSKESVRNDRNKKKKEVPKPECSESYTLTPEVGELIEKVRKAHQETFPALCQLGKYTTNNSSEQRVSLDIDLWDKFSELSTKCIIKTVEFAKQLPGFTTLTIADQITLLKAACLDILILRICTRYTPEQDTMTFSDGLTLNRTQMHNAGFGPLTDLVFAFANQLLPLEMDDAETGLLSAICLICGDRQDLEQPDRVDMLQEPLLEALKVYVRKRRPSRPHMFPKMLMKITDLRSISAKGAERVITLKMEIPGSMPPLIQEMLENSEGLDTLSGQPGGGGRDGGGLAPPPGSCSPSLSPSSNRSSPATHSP
Excerpt: This example illustrates affinities of hydroxamic acid derivatives obtained in Examples 1 to 55 to retinoic acid receptor, in comparison with retinol and retinoic acid.
(§1) Receptor-expression plasmid, pECE-RARα and pECE-RARγ were engineered by the prior method (Mol. Cell. Biol. 1996, 16, 1138-1149). RARE-tk-Luc, i.e. RARE reporter was obtained by inserting RARE fragment from b-RARE-tk-CAT into pGL3 luciferase basic vector. CV-1 cells were obtained from ATCC (American Type Culture Collection).
CV-1 cells were seeded into 96-well microtiter plate at 5,000 cells per well and cultured in DMEM (Dulbecco's Modified Eagle's Media) supplemented with 2.5% fetal bovine serum. 24 Hours later, the cells were transfected with 10 ng of pECE-RARα, long of pECE-RARγ, 100 ng of reporter plasmid and 100 ng of β-galactosidase-expression vector, using LipofectaminPlus (GIBCO BRL, grand island, N.Y.). 24 Hours post-transfection, the cells were treated for 24 hours with hydroxamic acid derivatives of Examples 1˜55 or retinol at a final concentration of 10^−4M or with retinoic acid at a final concentration of 10^−5M, which is 10 times lower concentration than those of the former.

RARγ = molecular target: T2, RARγ (Homo sapiens, UniProt P13631); experiment: RARE-luciferase reporter assay in transfected CV-1 cells (affinity to retinoic acid receptor), RARγ; assay type: cell-based; details: treated 24 hours at final concentration 10^−4M, control group 5000
T2 construct: expressed in transfected cells; host or cells: CV-1 cells (ATCC)
T2 sequence (P13631 1-454): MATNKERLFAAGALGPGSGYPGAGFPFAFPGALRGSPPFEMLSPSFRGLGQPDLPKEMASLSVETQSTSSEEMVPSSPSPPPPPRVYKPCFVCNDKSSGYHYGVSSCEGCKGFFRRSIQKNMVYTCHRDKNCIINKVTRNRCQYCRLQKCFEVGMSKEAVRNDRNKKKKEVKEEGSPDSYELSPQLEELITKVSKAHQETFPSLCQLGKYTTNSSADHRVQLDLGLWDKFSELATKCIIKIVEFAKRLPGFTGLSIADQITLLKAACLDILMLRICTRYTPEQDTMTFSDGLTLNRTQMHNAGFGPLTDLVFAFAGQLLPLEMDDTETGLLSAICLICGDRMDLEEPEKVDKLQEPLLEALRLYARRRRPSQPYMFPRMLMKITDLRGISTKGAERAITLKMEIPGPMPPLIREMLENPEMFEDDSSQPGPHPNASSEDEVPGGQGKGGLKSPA
Procedure: as §1
CV-1 cells were seeded into 96-well microtiter plate at 5,000 cells per well and cultured in DMEM (Dulbecco's Modified Eagle's Media) supplemented with 2.5% fetal bovine serum. 24 Hours later, the cells were transfected with 10 ng of pECE-RARα, long of pECE-RARγ, 100 ng of reporter plasmid and 100 ng of β-galactosidase-expression vector, using LipofectaminPlus (GIBCO BRL, grand island, N.Y.).

procollagen type I = experiment: Effect on collagen biosynthesis (procollagen type I ELISA) in human fibroblasts; assay type: cell-based; details: 10^−4M, 24 hours, serum-free medium, relative to control group = 100
Procedure: Human fibroblasts were seeded into 24-well plate at 1×10^5 cells per well and then cultured to 90% of growth.
For each supernatant, procollagen production was measured with procollagen type I ELISA kit.

collagenase = experiment: Inhibition of collagenase expression in human fibroblasts (ELISA kit); assay type: cell-based; details: 10^−4M, 24 hours, serum-free medium, relative to control group = 100
Procedure: Human fibroblasts were seeded into 96-well microtiter plate at 5,000 cells per well and then cultured to 90% of growth in DMEM (Dulbecco's Modified Eagle's Media) supplemented with 2.5% fetal bovine serum. Then, the fibroblastes were cultured in serum-free DMEM for 24 hours and treated for 24 hours with 10^−4M of hydroxamic acid derivatives of Examples 1˜55, retinol or retinoic acid in serum-free medium, and then the culture fluid was collected.
(§2) For each culture fluid, collagenase production was measured with collagenase kit (commercialized by AmershamPharmacia Biotech). Firstly, the culture fluid was added to 96-well plate spread with primary collagenase antibody and then antigen-antibody reaction was performed in an incubator for 3 hours. Later, chromophore-conjugated secondary antibody was added to the 96-well plate and then reacted for 15 minutes. Then, color former was added thereto, to induce development at room temperature for 15 minutes. 1M of sulfuric acid was added to stop the reaction. […] The color density depends on the progress of the reaction. The absorbance of the yellow 96-well plate was measured at 405 nm using absorptiometer. Collagenase expression was calculated by the following equation 1. Herein, the absorbance of the culture fluid collected from the medium with no material treated was used as a control. Collagenase expression (%)=(Absorbance of test group with said material treated/Absorbance of control group with no material treated)×100 [Equation 1]
Collagenase expression was evaluated as a relative value, in consideration that the value of control group with no material treated is 100.

elastase = experiment: Inhibition of elastase expression in human fibroblasts (ELISA kit); assay type: cell-based; details: 10^−4M, 24 hours, serum-free medium, relative to control group = 100
Procedure: as §2, with “elastase” for “collagenase”, “Elastase” for “Collagenase”, “2.” for “1.”, “2]” for “1]”
Elastase expression was evaluated as a relative value, in consideration that the value of control group with no material treated is 100.

white guinea pigs = experiment: Phototoxicity test (UVA irradiation); details: for Evaluation (phototoxicity): 1%(w/v) solution, UVA 15 J/cm^2; for Phototoxic index: 50 μl of 1%(w/v) solution, UVA 320~380 nm 15 J/cm^2, observed 24, 48 and 72 hours
Procedure: Test was performed for twenty-five (25) of white guinea pigs whose backs were depilated and fixed. On both sides of the back, six(6) sites of 2 cm×2 cm, three(3) per side were sectioned. Right sites were compared as controls with no irradiation (UV non-irradiation sites) and left sites were irradiated (UV irradiation sites).
30 Minutes later, right sites were shielded with aluminum foil and UVA(320˜380 nm) was irradiated at a distance of about 10 cm therefrom using Waldmann to the final energy of 15 J/cm^2. After 24, 48 and 72 hours elapsed, skin response of guinea pig was observed. […] Evaluation was estimated for each elapsed time, i.e. 24, 48 and 72 hours and maximum scores were selected, to calculate irritation index by the following equation 3. Then, phototoxic index was calculated by the following equation 4. Irritation index=(ΣMaximum of erythema+ΣMaximum of edema)/Number of animals [Equation 3] Phototoxic index=(Irritation index of UV irradiation site)−(Irritation index of UV non-irradiation site) Equation 4]

rabbits = experiment: Primary skin irritation test on animals (Draize P.I.I.); details: depilated back; for P.I.I. (Primary Irritation Index): 0.5 ml of 1% solution in 1,3-butylene glycol:ethanol 7:3, observed 24 or 72 hours later; for Evaluation (skin irritation): 1% solution, according to Draize's P.I.I.

SMILES: CC(C)(C)c1ccc(NC(=O)c2ccc(C(=O)NO)cc2)cc1 [Example 41, [4-(N-hydroxycarbamoyl)phenyl]-N-[4-tert-butylphenyl]carboxyamide]
- Luciferase activity RARα (RARα): 14300
- Luciferase activity RARγ (RARγ): 11211
- Collagen biosynthesis (%) (procollagen type I): 115%
- Collagenase expression (%) (collagenase): 88%
- Elastase expression (%) (elastase): 78%
- Evaluation (phototoxicity) (white guinea pigs): No phototoxicity (lower value than 0.5, criterion value to be estimated as no phototoxicity)
- Phototoxic index (white guinea pigs): 0
- P.I.I. (Primary Irritation Index) (rabbits): 0.367
- Evaluation (skin irritation) (rabbits): No irritation

SMILES: O=C(NO)c1ccc(NC(=O)c2ccccc2)cc1 [Example 1, N-[4-(N-hydroxycarbamoyl)phenyl]benzamide]
- Luciferase activity RARα (RARα): 10000
- Luciferase activity RARγ (RARγ): 12000
- Collagen biosynthesis (%) (procollagen type I): 105%
- Collagenase expression (%) (collagenase): 78%
- Elastase expression (%) (elastase): 79%
- Evaluation (phototoxicity) (white guinea pigs): No phototoxicity (lower value than 0.5, criterion value to be estimated as no phototoxicity)
- Phototoxic index (white guinea pigs): 0
- P.I.I. (Primary Irritation Index) (rabbits): 0.375
- Evaluation (skin irritation) (rabbits): No irritation

SMILES: Cc1ccc(C(=O)Nc2ccc(CC(=O)NO)cc2)cc1C [Example 31, N-[4-(N-hydroxycarbamoylmethyl)phenyl][3,4-dimethylphenyl]carboxyamide]
- Luciferase activity RARα (RARα): 23100
- Luciferase activity RARγ (RARγ): 10700
- Collagen biosynthesis (%) (procollagen type I): 109%
- Collagenase expression (%) (collagenase): 81%
- Elastase expression (%) (elastase): 63%
- Evaluation (phototoxicity) (white guinea pigs): No phototoxicity (lower value than 0.5, criterion value to be estimated as no phototoxicity)
- Phototoxic index (white guinea pigs): 0
- P.I.I. (Primary Irritation Index) (rabbits): 0.567
- Evaluation (skin irritation) (rabbits): No irritation

SMILES: CC(C)(C)c1ccc(C(=O)Nc2ccc(CC(=O)NO)cc2)cc1 [Example 30, N-[4-(N-hydroxycarbamoylmethyl)phenyl][4-tert-butylphenyl]carboxyamide]
- Luciferase activity RARα (RARα): 23500
- Luciferase activity RARγ (RARγ): 12000
- Collagen biosynthesis (%) (procollagen type I): 121%
- Collagenase expression (%) (collagenase): 83%
- Elastase expression (%) (elastase): 69%
- Evaluation (phototoxicity) (white guinea pigs): No phototoxicity (lower value than 0.5, criterion value to be estimated as no phototoxicity)
- Phototoxic index (white guinea pigs): 0
- P.I.I. (Primary Irritation Index) (rabbits): 0.456
- Evaluation (skin irritation) (rabbits): No irritation

SMILES: CN(C(=O)c1ccc(C(=O)NO)cc1)C12CC3CC(CC(C3)C1)C2 [Example 54, [4-(N-hydroxycarbamoyl)phenyl]-N-adamantyl-N-methylcarboxyamide]
- Luciferase activity RARα (RARα): 22500
- Luciferase activity RARγ (RARγ): 11000
- Collagen biosynthesis (%) (procollagen type I): 121%
- Collagenase expression (%) (collagenase): 83%
- Elastase expression (%) (elastase): 67%
- Evaluation (phototoxicity) (white guinea pigs): No phototoxicity (lower value than 0.5, criterion value to be estimated as no phototoxicity)
- Phototoxic index (white guinea pigs): 0
- P.I.I. (Primary Irritation Index) (rabbits): 0.567
- Evaluation (skin irritation) (rabbits): No irritation

SMILES: CN(C(=O)c1ccccc1)c1ccc(C(=O)NO)cc1 [Example 12, N-[4-(N-hydroxycarbamoyl)phenyl]-N-methyl-benzamide]
- Luciferase activity RARα (RARα): 14500
- Luciferase activity RARγ (RARγ): 11300
- Collagen biosynthesis (%) (procollagen type I): 122%
- Collagenase expression (%) (collagenase): 64%
- Elastase expression (%) (elastase): 80%
- Evaluation (phototoxicity) (white guinea pigs): No phototoxicity (lower value than 0.5, criterion value to be estimated as no phototoxicity)
- Phototoxic index (white guinea pigs): 0
- P.I.I. (Primary Irritation Index) (rabbits): 0.410
- Evaluation (skin irritation) (rabbits): No irritation

SMILES: CN(O)C(=O)Cc1ccc(NC(=O)C23CC4CC(CC(C4)C2)C3)cc1 [Example 33, 2-[4-(adamantlycarbonylamino)phenyl]-N-hydroxy-N-methylacetamide]
- Luciferase activity RARα (RARα): 13400
- Luciferase activity RARγ (RARγ): 11000
- Collagen biosynthesis (%) (procollagen type I): 112%
- Collagenase expression (%) (collagenase): 70%
- Elastase expression (%) (elastase): 82%
- Evaluation (phototoxicity) (white guinea pigs): No phototoxicity (lower value than 0.5, criterion value to be estimated as no phototoxicity)
- Phototoxic index (white guinea pigs): 0
- P.I.I. (Primary Irritation Index) (rabbits): 0.765
- Evaluation (skin irritation) (rabbits): No irritation

SMILES: Cc1cccc(N(C)C(=O)c2ccc(C(=O)NO)cc2)c1 [Example 47, [4-(N-hydroxycarbamoyl)phenyl]-N-methyl-N-[3-methylphenyl]carboxyamide]
- Luciferase activity RARα (RARα): 12200
- Luciferase activity RARγ (RARγ): 11700
- Collagen biosynthesis (%) (procollagen type I): 112%
- Collagenase expression (%) (collagenase): 79%
- Elastase expression (%) (elastase): 83%
- Evaluation (phototoxicity) (white guinea pigs): No phototoxicity (lower value than 0.5, criterion value to be estimated as no phototoxicity)
- Phototoxic index (white guinea pigs): 0
- P.I.I. (Primary Irritation Index) (rabbits): 0.367
- Evaluation (skin irritation) (rabbits): No irritation

SMILES: CCCCc1ccc(NC(=O)c2ccc(C(=O)NO)cc2)cc1 [Example 40, [4-(N-hydroxycarbamoyl)phenyl]-N-[4-butylphenyl]carboxyamide]
- Luciferase activity RARα (RARα): 14300
- Luciferase activity RARγ (RARγ): 11200
- Collagen biosynthesis (%) (procollagen type I): 108%
- Collagenase expression (%) (collagenase): 77%
- Elastase expression (%) (elastase): 90%
- Evaluation (phototoxicity) (white guinea pigs): No phototoxicity (lower value than 0.5, criterion value to be estimated as no phototoxicity)
- Phototoxic index (white guinea pigs): 0
- P.I.I. (Primary Irritation Index) (rabbits): 0.546
- Evaluation (skin irritation) (rabbits): No irritation
